Drawing on ChEMBL document CHEMBL1949607, “p-Terphenyl and diterpenoid metabolites from endophytic Aspergillus sp. YXf3” (J Nat Prod, 2012), this text covers IC50 for 16 compounds.

The test can be described thus: Inhibition of viral neuraminidase after 20 mins by fluorescence assay.
By IC50 is commonly meant the concentration needed to halve the response being measured. Low readings indicate greater potency, high ones weaker potency. Compound `COc1cc(-c2ccccc2)c(OC)c(O)c1-c1ccc(O)c(O)c1` showed an IC50 greater than 30 µM.

In turn, `CO[C@]12OC[C@@H](O)c3c(C)ccc(c31)C1=C(C2=O)C(C)(C)CCC1` (racemic) gave an IC50 greater than 30 µM.

For the compound `COc1c(-c2ccc(O)cc2)cc(O)c(-c2ccc(O)cc2)c1O`, the IC50 was greater than 30 µM.

Compound `COc1cc(-c2ccc(O)cc2)c(OC)c(O)c1C1=CC(=O)OC1CC(=O)O` (stereo unspecified) [TERPHENOLIDE] displayed an IC50 of 5.79 µM.

`COc1c(-c2ccc(O)cc2)cc(OC)c2c1oc1cc(O)c(O)cc12` [CANDIDUSIN A] displayed a half-inhibitory concentration (IC50) greater than 30 µM.

The compound `COc1c(-c2ccccc2)cc(O)c(-c2ccc(O)cc2)c1O` returned an IC50 greater than 30 µM.

On to `COc1cc2oc3c(OC)c(-c4ccc(O)cc4)cc(OC)c3c2cc1OC`, for which the half-maximal inhibitory concentration (IC50) is greater than 30 µM.

In turn, `CO[C@@H]1CO[C@]2(OC)C(=O)C3=C(CCCC3(C)C)c3ccc(C)c1c32` (racemic) yielded an IC50 greater than 30 µM.

The compound `C=C[C@@]1(C)CC[C@H]2C(=C[C@H](O)[C@H]3C(C)(C)CC[C@@H](O)[C@]23C)[C@H]1O` (relative stereo) gave an IC50 greater than 30 µM.

The compound `C=Cc1c(C)ccc2c1C(=O)[C@H](O)[C@H]1C(C)(C)CC[C@@H](O)[C@]21C` [ASPERGILOID C] yielded an IC50 greater than 30 µM.

Consider `COc1cc(-c2ccc(O)cc2)c(OC)c(O)c1-c1ccc(O)c(O)c1`, for which the half-inhibitory concentration (IC50) is 9.17 µM.

Compound `CCOC(=O)C1=C[C@@H](OC(CC)CC)[C@H](NC(C)=O)[C@@H](N)C1` [OSELTAMIVIR] returned an IC50 of 0.14 µM. This IC50 lies about 66-fold lower than the previous one.

`COc1ccc(-c2cc(OC)c3c(oc4cc(O)c(O)cc43)c2OC)cc1` [CANDIDUSIN C] showed an IC50 greater than 30 µM.

Regarding `COc1c(-c2ccccc2)cc(OC)c2c1oc1cc(O)c(O)cc12`, the IC50 is 9.05 µM.

`COc1cc(-c2ccccc2)c(OC)c(O)c1-c1ccc(O)cc1` returned an IC50 of 4.34 µM.

Regarding `COc1cc(-c2ccc(O)cc2)c(OC)c(O)c1-c1ccc(O)cc1` [TERPHENYLLIN], the IC50 was greater than 30 µM.
